Laboratory results: patent publication US20060062842A1, “Method of administering a compound to multi-drug resistant cells” (Alza Corporation, priority 1998, published 2006)

Tests used:
M109R-HiFR cells [1] = assay: In vivo adoptive tumor growth assay, footpad; set-up: species or system BALB/c mice
From the text: To examine the biological activity of drug delivered by the folate-pathway from folate-targeted liposomes in another model, M109R-HiFR cells in vitro were exposed to a test drug. These cells were inoculated into mice footpads. In this way, the growth of cells was tracked along a much longer time span than in in vitro experiments, and the influence of in vivo micro-environmental factors is brought into play. However, unlike therapeutic experiments, this type of in vivo adoptive assay is unaffected by pharmacokinetic and biodistribution factors which complicat the interpretation of results.
Accordingly, tumor cells in vitro were incubated with free doxorubicin or with liposome-entrapped, non-folate-targeted doxorubicin (DOXIL®) or with folate-targeted, liposome-entrapped doxorubicin in accord with the invention. As described in Example 9, the tumor cells were incubated in the presence of the selected formulation for 1 hour and then 1×10^6 cells were injected into the footpad of a mouse, each treatment formulation being injected into 8 mice.
At the end of the study on day 34 after injection of the treated tumor cells, the weight of each tumor-bearing mouse footpad was determined and […] to determine the tumor weight in each mouse footpad.
Female 10-week-old BALB/c mice were maintained in a specific pathogen-free facility. M109R-HiFR cells in in vitro suspension (10^7 cells/ml) were exposed to 10^−5M doxorubicin either as free drug, as liposome-entrapped (Doxil®), or as folate-targeted liposome-entrapped […], washed with PBS, and then resuspended at a concentration of 2×10^7 cells. Healthy, syngeneic BALB/c mice were injected into the right hind footpad with 50 μl (10^6 cells). The footpad thickness was measured with calipers once or twice a week for 5 weeks. After 35 days, mice were sacrificed, the final number of tumors recorded, and the control and tumor-inoculated footpads were sectioned at the ankle level and weighed. Tumor weight was estimated as the difference between the weight of the normal and tumor-bearing footpad. The statistical significance of differences in the final incidence of tumors per group was analyzed by contingency tables and the Fisher's exact test.

M109R-HiFR cells [2] = assay: Fluorescence tracking of doxorubicin in cells; assay type: cell-based, murine
Procedure: As described in Example 5, folate-targeted liposomes containing doxorubicin were prepared and incubated with M109R-HiFR cells. For comparison, M109R-HiFR cells were also incubated with free doxorubicin or with liposomes containing doxorubicin but with no folate targeting ligand.
In another study, the ability of the M109R-HiFR cells to retain doxorubicin after treatment for 1 hour with either free doxorubicin or with doxorubicin-loaded folate-targeted liposomes, followed by incubation in drug-free medium for 24 hours was examined.
M109 HIFR cells were plated, 24 hours prior to each study, on 24 mm cover slips inserted into 35 mm culture dishes. […]
Examination of the cells was done with inverted Zeiss confocal laser scanning microscope (LSM410) (Carl Zeiss, Jena, Germany). Maximum excitation was done by 543 nm line of the internal He-neon laser; fluorescence emission was observed above 570 nm with long-pass barrier filter LP-570) for rhodamine. For doxorubicin, maximum excitation was done by 488 nm line of internal Argon laser: fluorescence emission was observed above 515 nm with long pass barrier filter LP-515. […]
M109R-HiFr cells were incubated with free doxorubicin or with doxorubicin entrapped in folate-targeted liposomes at a doxorubicin concentration of 4×10^−5 M. The doxorubicin molecule was tracked using fluorescence.

M109R cells = assay: Multidrug-resistance of M109R subline; assay type: cell-based, murine
From the text: (i) Cell lines: M109, a murine lung carcinoma line of BALB/c mice (Marks, T. A. et al., Cancer Treat. Rep., 61:1459-1470 ([…])), and a subline of these cells, M109R displaying multidrug-resistance, (approximately 100 fold increased resistance to doxorubicin) were used in most of the studies. Both cell lines express in vitro low amounts of folic acid receptors and are therefore referred to as M109-LoFR and M109R-LoFR. By culturing these cells in folic acid-free medium for several passages, two sublines expressing a high amount of folic acid receptors were obtained. These sublines were adapted to grow under low folic acid conditions with generation doubling times similar to the lines of origin.

tumor cells = assay: Adoptive tumor growth assay, subcutaneous injection; assay type: in vivo, mice; conditions: treated tumor cells injected subcutaneously (FIG. 16)
From the text: FIG. 16 is a plot showing the number of palpable tumors after subcutaneous injection of untreated (control, open circles) or in vitro treated tumor cells with free doxorubicin (closed circles), doxorubicin entrapped in non-targeted liposomes (open squares) and doxorubicin entrapped in folate-targeted liposomes (closed triangles).

M109R-HiFR cells [3] = assay: Verapamil blockade of efflux pump and doxorubicin delivery; conditions: for Intracellular Doxorubicin Content: 0.5×10^-5 M doxorubicin, verapamil 10 μmol where named
[4] = system: drug-resistance (M109R) cells; assay: Cell-associated doxorubicin after exposure; assay type: cell-based, murine; conditions: Drug-Resistant Cells, 0.2×10^-5 M doxorubicin
Procedure: (§1) The doxorubicin was administered to the cells in free form and entrapped in folate-targeted liposomes. The cell-associated drug was measured after 1 hour and 4 hours of exposure to doxorubicin.

[5] = system: drug-sensitive (M109) cells; assay: Cell-associated doxorubicin after exposure; assay type: cell-based, murine; conditions: 0.5×10^-6 M doxorubicin
Procedure: as §1

M109R-HiFR cells [6] = assay: Folic acid binding to cell lines
Normal Human Fibroblasts = assay: Folic acid binding to cell lines; conditions: NHF; 30 min at 37° C.
Procedure: (§2) These cell lines and their capacity to bind folic acid were determine as set forth in Example 2B, by incubating the cells for 30 minutes with folic acid at 37° C.
(§3) Radioactivity was determined by liquid scintillation counting.

Human Melanoma line A375 = assay: Folic acid binding to cell lines; conditions: 30 min at 37° C.
Procedure: as §2, §3

[7] = system: Murine Lung Carcinoma High Folate Receptor cells; assay: Folic acid binding to cell lines; conditions: Murine Lung Carcinoma High Folate Receptor (printed M109R-HiFR); 30 min at 37° C.
Procedure: as §2, §3

M109-LoFR cells = assay: Folic acid binding to cell lines; set-up: species or system murine; conditions: incubation 30 min at 37° C.
Procedure: as §2, §3

M109R-LoFR cells = assay: Folic acid binding to cell lines; set-up: species or system murine; conditions: incubation 30 min at 37° C.
Procedure: as §2, §3

KB-HiFR cells = assay: Folic acid binding to cell lines; set-up: species or system human
Procedure: as §2, §3

KB-LoFR cells = assay: Folic acid binding to cell lines; set-up: species or system human
Procedure: as §2, §3

[8] = cells exposed in vitro to 10^-5 M doxorubicin, 5 weeks follow-up

COc1cccc2c1C(=O)c1c(O)c3c(c(O)c1C2=O)C[C@@](O)(C(=O)CO)C[C@@H]3O[C@H]1C[C@H](N)[C@H](O)[C@H](C)O1 [Free Doxorubicin, doxorubicin]
Final Tumor Incidence (%) (M109R-HiFR cells [1]; [8]): 42% | Final Tumor Incidence (tumors/mice) (M109R-HiFR cells [1]; [8]): 8/19 | Median Tumor weight (range) (M109R-HiFR cells [1]; footpad tumor weight at end of study): 239 (32-683) mg | footpad thickness (M109R-HiFR cells [1]; tumor cells treated in vitro, 10^6 cells injected into footpad (FIG. 15A)): increase in footpad thickness | doxorubicin fluorescence retained in cells (M109R-HiFR cells [2]; 1 hour treatment, then 24 hours in drug-free medium (FIGS. 10C-10D)): almost completely waned | time at which drug is located in the nucleus (M109R-HiFR cells [2]; doxorubicin 4×10^-5 M (FIGS. 9B, 9E)): ≤ 30 min | increased resistance of M109R versus M109 (M109R cells): approximately 100 fold | number of palpable tumors (tumor cells): significant number of tumors | cell fluorescence by flow cytometry in presence of verapamil (M109R-HiFR cells [3]; FIGS. 11A-11B): clear increase of cell fluorescence | Intracellular Doxorubicin Content (M109R-HiFR cells [3]; exposure time 30 minutes): 24 ng/1.5 × 10^6 cells | Intracellular Doxorubicin Content (M109R-HiFR cells [3]; exposure time 60 minutes): 42.5 ng/1.5 × 10^6 cells | cell retention of doxorubicin in presence versus absence of verapamil (M109R-HiFR cells [3]; verapamil 10 μmol): ~4.5 fold | Percent doxorubicin administered remaining in cells ([4]; exposure 1 hour): 5.5% | intracellular doxorubicin ([4]; exposure 1 hour): 159 ng/1.5 × 10^6 cells | Percent doxorubicin administered remaining in cells ([4]; exposure 4 hours): 4.2% | intracellular doxorubicin ([4]; exposure 4 hours): 122 ng/1.5 × 10^6 cells | Percent doxorubicin administered remaining in cells ([5]; exposure 1 hour): 8.6% | intracellular doxorubicin ([5]; exposure 1 hour): 25 ng/1.5 × 10^6 cells | Percent doxorubicin administered remaining in cells ([5]; exposure 4 hours): 12.4% | intracellular doxorubicin ([5]; exposure 4 hours): 36.1 ng/1.5 × 10^6 cells

Nc1nc2ncc(CNc3ccc(C(=O)N[C@@H](CCC(=O)O)C(=O)O)cc3)nc2c(=O)[nH]1 [folic acid]
FOLIC ACID BINDING (M109R-HiFR cells [6]; Multidrug-resistant High Folate Receptor M109R-HiFR, 30 min at 37° C.): 2179 ± 430 FENTOMOLES/10^4 CELLS | folic acid remaining bound following acid wash (M109R-HiFR cells [6]; acid wash pH 3, binding at ~1° C. for 30 min): 2±1% | loss of folic acid receptors shown by binding assay with folic acid (M109R-HiFR cells [6]; monolayers pretreated with PI-PLC): 99% | cell-bound radiolabeled folic acid recovered after trypsinization (M109R-HiFR cells [6]; trypsin treatment): 91±11% | FOLIC ACID BINDING (Normal Human Fibroblasts): 45 ± 3 FENTOMOLES/10^4 CELLS | FOLIC ACID BINDING (Human Melanoma line A375): 168 ± 33 FENTOMOLES/10^4 CELLS | FOLIC ACID BINDING [7]: 678 ± 255 FENTOMOLES/10^4 CELLS | FOLIC ACID BINDING (M109-LoFR cells; M109-LoFR after culture in folic acid-depleted medium for 24 h): 25 ± 13 FENTOMOLES/10^4 CELLS | FOLIC ACID BINDING (M109-LoFR cells; M109-LoFR): 20 ± 6 FENTOMOLES/10^4 CELLS | FOLIC ACID BINDING (M109R-LoFR cells): 27 ± 10 FENTOMOLES/10^4 CELLS | difference in folic acid binding capacity (KB-HiFR cells; KB-HiFR (highest) compared with M109-LoFR (lowest)): up to 485 fold | FOLIC ACID BINDING (KB-HiFR cells; KB-HiFR, 30 min at 37° C.): 9730 ± 79 FENTOMOLES/10^4 CELLS | increase in folic acid binding (KB-LoFR cells; KB-LoFR after 24 hours in folic acid-depleted medium): 15 fold | FOLIC ACID BINDING (KB-LoFR cells; KB-LoFR after culture in folic acid-depleted medium for 24 h, 30 min at 37° C.): 6725 ± 323 FENTOMOLES/10^4 CELLS
